The subject of this data set is CCRIS mutagenicity, Ames/micronucleus/aberration tests. The experiment in a line: CCRIS mutagenicity studies.
Setting [1] is: Test System: AMES SALMONELLA TYPHIMURIUM, Strain/Indicator: TA1537, Metabolic Activation: NONE, Method: STANDARD PLATE.
[2] abbreviates: Test System: AMES SALMONELLA TYPHIMURIUM, Strain/Indicator: TA1537, Metabolic Activation: S-9, Method: STANDARD PLATE.

Activity calls are given as the source filed them. The rule behind the calls is not given here.

On to `COc1cc(O)c2c(c1)Cc1cc(C)cc(O)c1C2=O`, for which the mutagenic call under setting [1] is “inactive; negative” and the mutagenic call under setting [2] is “active; positive”.
Take `COc1cc(O[C@@H]2O[C@H](CO)[C@@H](O)[C@H](O)[C@H]2O)c2c(=O)c3c(O)ccc(O)c3oc2c1`: the mutagenic call is, setting by setting: (Test System: AMES SALMONELLA TYPHIMURIUM, Strain/Indicator: TA97, Metabolic Activation: RAT, LIVER, S-9, PHENOBARBITAL AND 5,6-BENZOFLAVONE, BETA-GLUCOSIDASE, Method: PREINCUBATION) “active; positive”; (Test System: AMES SALMONELLA TYPHIMURIUM, Strain/Indicator: TA98, Metabolic Activation: RAT, LIVER, S-9, PHENOBARBITAL AND 5,6-BENZOFLAVONE, BETA-GLUCOSIDASE, Method: PREINCUBATION) “inactive; negative”; (Test System: AMES SALMONELLA TYPHIMURIUM, Strain/Indicator: TA100, Metabolic Activation: RAT, LIVER, S-9, PHENOBARBITAL AND 5,6-BENZOFLAVONE, BETA-GLUCOSIDASE, Method: PREINCUBATION) “active; positive”; (Test System: AMES SALMONELLA TYPHIMURIUM, Strain/Indicator: TA2637, Metabolic Activation: RAT, LIVER, S-9, PHENOBARBITAL AND 5,6-BENZOFLAVONE, BETA-GLUCOSIDASE, Method: PREINCUBATION) “active; positive”.
Consider `COc1ccc(C(=O)c2ccccc2)c(O)c1`, for which the mutagenic call is, setting by setting: (Test System: AMES SALMONELLA TYPHIMURIUM, Strain/Indicator: TA97, Metabolic Activation: HAMSTER, LIVER, S-9, AROCLOR 1254 (10%), Method: PREINCUBATION) “inactive; negative”; (Test System: AMES SALMONELLA TYPHIMURIUM, Strain/Indicator: TA97, Metabolic Activation: HAMSTER, LIVER, S-9, AROCLOR 1254 (30%), Method: PREINCUBATION) “inactive; negative”; (Test System: AMES SALMONELLA TYPHIMURIUM, Strain/Indicator: TA97, Metabolic Activation: NONE, Method: PREINCUBATION) “inactive; negative”; (Test System: AMES SALMONELLA TYPHIMURIUM, Strain/Indicator: TA97, Metabolic Activation: RAT, LIVER, S-9, AROCLOR 1254 (10%), Method: PREINCUBATION) “inactive; negative”; (Test System: AMES SALMONELLA TYPHIMURIUM, Strain/Indicator: TA97, Metabolic Activation: RAT, LIVER, S-9, AROCLOR 1254 (30%), Method: PREINCUBATION) “inactive; negative”; (Test System: AMES SALMONELLA TYPHIMURIUM, Strain/Indicator: TA98, Metabolic Activation: HAMSTER, LIVER, S-9, AROCLOR 1254 (10%), Method: PREINCUBATION) “inactive; negative”. In addition, the mutagenic call (Test System: AMES SALMONELLA TYPHIMURIUM, Strain/Indicator: TA98, Metabolic Activation: HAMSTER, LIVER, S-9, AROCLOR 1254 (30%), Method: PREINCUBATION) was “inactive; negative”; the mutagenic call (Test System: AMES SALMONELLA TYPHIMURIUM, Strain/Indicator: TA98, Metabolic Activation: NONE, Method: PREINCUBATION) is “inactive; negative”; the mutagenic call (Test System: AMES SALMONELLA TYPHIMURIUM, Strain/Indicator: TA98, Metabolic Activation: RAT, LIVER, S-9, AROCLOR 1254 (10%), Method: PREINCUBATION) is “inactive; negative”; the mutagenic call (Test System: AMES SALMONELLA TYPHIMURIUM, Strain/Indicator: TA98, Metabolic Activation: RAT, LIVER, S-9, AROCLOR 1254 (30%), Method: PREINCUBATION) is “inactive; negative”; the mutagenic call (Test System: AMES SALMONELLA TYPHIMURIUM, Strain/Indicator: TA100, Metabolic Activation: HAMSTER, LIVER, S-9, AROCLOR 1254 (10%), Method: PREINCUBATION) is “inactive; negative”; the mutagenic call (Test System: AMES SALMONELLA TYPHIMURIUM, Strain/Indicator: TA100, Metabolic Activation: HAMSTER, LIVER, S-9, AROCLOR 1254 (30%), Method: PREINCUBATION) is “inactive; negative”. For the same compound, the mutagenic call reads like this: (Test System: AMES SALMONELLA TYPHIMURIUM, Strain/Indicator: TA100, Metabolic Activation: NONE, Method: PREINCUBATION) “inactive; negative”; (Test System: AMES SALMONELLA TYPHIMURIUM, Strain/Indicator: TA100, Metabolic Activation: RAT, LIVER, S-9, AROCLOR 1254 (10%), Method: PREINCUBATION) “inactive; negative”; (Test System: AMES SALMONELLA TYPHIMURIUM, Strain/Indicator: TA100, Metabolic Activation: RAT, LIVER, S-9, AROCLOR 1254 (30%), Method: PREINCUBATION) “inactive; negative”; (Test System: AMES SALMONELLA TYPHIMURIUM, Strain/Indicator: TA1535, Metabolic Activation: HAMSTER, LIVER, S-9, AROCLOR 1254 (10%), Method: PREINCUBATION) “inactive; negative”; (Test System: AMES SALMONELLA TYPHIMURIUM, Strain/Indicator: TA1535, Metabolic Activation: HAMSTER, LIVER, S-9, AROCLOR 1254 (30%), Method: PREINCUBATION) “inactive; negative”; (Test System: AMES SALMONELLA TYPHIMURIUM, Strain/Indicator: TA1535, Metabolic Activation: NONE, Method: PREINCUBATION) “inactive; negative”. In addition, the mutagenic call is, setting by setting: (Test System: AMES SALMONELLA TYPHIMURIUM, Strain/Indicator: TA1535, Metabolic Activation: RAT, LIVER, S-9, AROCLOR 1254 (10%), Method: PREINCUBATION) “inactive; negative”; (Test System: AMES SALMONELLA TYPHIMURIUM, Strain/Indicator: TA1535, Metabolic Activation: RAT, LIVER, S-9, AROCLOR 1254 (30%), Method: PREINCUBATION) “inactive; negative”; (Test System: AMES SALMONELLA TYPHIMURIUM, Strain/Indicator: TA1537, Metabolic Activation: HAMSTER, LIVER, S-9, AROCLOR 1254 (10%), Method: PREINCUBATION) “inactive; negative”; (Test System: AMES SALMONELLA TYPHIMURIUM, Strain/Indicator: TA1537, Metabolic Activation: NONE, Method: PREINCUBATION) “inactive; negative”; (Test System: AMES SALMONELLA TYPHIMURIUM, Strain/Indicator: TA1537, Metabolic Activation: RAT, LIVER, S-9, AROCLOR 1254 (10%), Method: PREINCUBATION) “inactive; negative”; (Test System: MOUSE LYMPHOMA, Strain/Indicator: L5178Y (TK+/TK-), Metabolic Activation: NONE, Method: SUSPENSION/PLATE) “inactive; positive. reevaluation of results: negative”. Besides, the mutagenic call (Test System: MOUSE LYMPHOMA, Strain/Indicator: L5178Y (TK+/TK-), Metabolic Activation: RAT, LIVER, S-9, AROCLOR 1254, Method: SUSPENSION/PLATE) is “active; positive. reevaluation of results: equivocal”.
Turning to `C1CSCCS1`, the mutagenic call is “inactive; negative” (Test System: AMES SALMONELLA TYPHIMURIUM, Strain/Indicator: TA98, Metabolic Activation: RAT, LIVER, S-9, AROCLOR 1254, Method: STANDARD PLATE); “inactive; negative” (Test System: AMES SALMONELLA TYPHIMURIUM, Strain/Indicator: TA98, Metabolic Activation: S-9, Method: STANDARD PLATE); “inactive; negative” (Test System: AMES SALMONELLA TYPHIMURIUM, Strain/Indicator: TA100, Metabolic Activation: RAT, LIVER, S-9, AROCLOR 1254, Method: STANDARD PLATE); “inactive; negative” (Test System: AMES SALMONELLA TYPHIMURIUM, Strain/Indicator: TA100, Metabolic Activation: S-9, Method: STANDARD PLATE); “inactive; negative” (Test System: AMES SALMONELLA TYPHIMURIUM, Strain/Indicator: TA1535, Metabolic Activation: NONE, Method: STANDARD PLATE); “inactive; negative” (Test System: AMES SALMONELLA TYPHIMURIUM, Strain/Indicator: TA1535, Metabolic Activation: S-9, Method: STANDARD PLATE). For the same compound, the mutagenic call under setting [1] is “inactive; negative”; the mutagenic call under setting [2] was “inactive; negative”; the mutagenic call (Test System: AMES SALMONELLA TYPHIMURIUM, Strain/Indicator: TA1538, Metabolic Activation: NONE, Method: STANDARD PLATE) was “inactive; negative”; the mutagenic call (Test System: AMES SALMONELLA TYPHIMURIUM, Strain/Indicator: TA1538, Metabolic Activation: S-9, Method: STANDARD PLATE) was “inactive; negative”.
Turning to `Cc1cc(N=Nc2ccccc2)c(N)cc1N`, the mutagenic call (Test System: AMES SALMONELLA TYPHIMURIUM, Strain/Indicator: TA100, Metabolic Activation: HUMAN, LIVER, S-9, Method: PREINCUBATION) was “inactive; negative”; the mutagenic call (Test System: AMES SALMONELLA TYPHIMURIUM, Strain/Indicator: TA100, Metabolic Activation: RAT, LIVER, HEPATOCYTES, Method: PREINCUBATION) was “inactive; negative”; the mutagenic call (Test System: AMES SALMONELLA TYPHIMURIUM, Strain/Indicator: TA100, Metabolic Activation: RAT, LIVER, S-9, BETA-NAPHTHOFLAVONE, Method: PREINCUBATION) was “active; positive”; the mutagenic call (Test System: AMES SALMONELLA TYPHIMURIUM, Strain/Indicator: TA100, Metabolic Activation: RAT, LIVER, S-9, PHENOBARBITAL, Method: PREINCUBATION) is “active; positive”; the mutagenic call (Test System: AMES SALMONELLA TYPHIMURIUM, Strain/Indicator: TA100, Metabolic Activation: RAT, LIVER, S-9, Method: PREINCUBATION) is “active; positive”; the mutagenic call (Test System: UDS RODENT HEPATOCYTES, Strain/Indicator: THY INCORP, Metabolic Activation: NONE, Method: AUTORADIOGRAPHY) is “active; positive”.

The values above are taken from PubChem BioAssay AID1259407 (Chemical Carcinogenesis Research Information System (CCRIS), 2018).
